From patent US10966426B2, “Herbicidal compositions comprising phenylpyrimidines” (BASF SE, priority 2016, dated 2021) come the findings set out here.

Where two headings read alike, the source gives them in different places.

Holding throughout (assay type): in vivo
One test has as its system Stellaria media. The experiment in a line: greenhouse post-emergence treatment, STEME. The settings on record: Stellaria media. A digest of the protocol:
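Seeds sown per species in pots of loamy sand; seedlings either grown in place or transplanted days before treatment. Post-emergence spray of water-based liquor at 3–15 cm height. Injury rated 0–100 over 2 to 4 weeks.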

Another test concerns Papaver rhoeas. The experiment in a line: greenhouse pre-emergence treatment, PAPRH. The settings on record: 20 DAT. The text has this: (§1) The culture containers used were plastic pots containing loamy sand with approximately 3.0% of humus as substrate. The seeds of the test plants were sown separately for each species.
(§2) For the pre-emergence treatment, the active compounds, suspended or emulsified in water, were applied directly after sowing by means of finely distributing nozzles. The containers were irrigated gently to promote germination and growth and subsequently covered with transparent plastic hoods until the plants had rooted. This cover caused uniform germination of the test plants unless this was adversely affected by the active compounds.
(§3) Depending on the species, the plants were kept at 10-25° C. and 20-35° C., respectively.
(§4) The test period extended over 2 to 4 weeks. During this time, the plants were tended and their response to the individual treatments was evaluated.
(§5) Evaluation was carried out using a scale from 0 to 100. 100 means no emergence of the plants, or complete destruction of at least the above-ground parts, and 0 means no damage or normal course of growth. A good herbicidal activity is given at values of at least 70, and very good herbicidal activity is given at values of at least 85.
(§6) The respective stated components A and B, and if appropriate, C were formulated as a 10% by weight strength emulsion concentrate and, with addition of the amount of solvent system, introduced into the spray liquor used for applying the active compound. In the examples, the solvent used was water.
(§7) In the examples below, using the method of S. R. Colby (1967) “Calculating synergistic and antagonistic responses of herbicide combinations”, Weeds 15, p. 22ff., the value E, which is expected if the activity of the individual active compounds is only additive, was calculated. E=X+Y−(X·Y/100) where X=effect in percent using herbicide A at an application rate a; • Y=effect in percent using herbicide B at application rate b; • E=expected effect (in %) of herbicide A+herbicide B at application rates a+b.

The next test relates to Echinocloa crus-galli. Put plainly: greenhouse pre-emergence treatment, ECHCG. The settings on record: 20 DAT.
Text: as §1, §2, §3, §4, §5, §6, §7

Another test deals with Helianthus annuus. Put plainly: greenhouse post-emergence treatment, HELAN. The settings on record: for % activity: cinmethylin solo (EC 750 g/l), 21 DAT. How it is done:
as §1
For the post-emergence treatment, the test plants were grown to a plant height of from 3 to 15 cm, depending on the plant habit, and only then treated with the active compounds which had been suspended or emulsified in water. To this end, the test plants were either sown directly, and grown in the same containers, or they were first grown separately as seedlings and transplanted into the test containers a few days prior to treatment.
as §3, §4, §5, §6, §7

In another test the test system is Galium aparine. The experiment in a line: greenhouse pre-emergence treatment, GALAP. The settings on record: Galium aparine, 480 h, 20 DAT, GALAP. A digest of the protocol: (§8)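 Pre-emergence spray of compounds, alone or as combinations formulated as 10% emulsion concentrate in water, directly after sowing in loamy sand (~3.0% humus); pots hooded until rooting, kept at 10-25° C or 20-35° C per species for 2 to 4 weeks. Damage scored 0-100 (100 = no emergence/complete destruction); Colby expected value E=X+Y−(X·Y/100).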

A further test deals with Poa annua. Put plainly: greenhouse pre-emergence treatment, POAAN. The settings on record: 20 DAT. The gist of the method: as §8
Another test concerns Alopecurus myosuroides. The experiment in a line: greenhouse pre-emergence treatment, ALOMY. The settings on record: 20 DAT. The gist of the method: as §8
In the next test the test system is Lolium multiflorum. Put plainly: greenhouse pre-emergence treatment, LOLMU. The settings on record: Lolium multiflorum, 480 h, LOLMU, 20 DAT. The gist of the method:
as §8

For the compound `CSc1nnc(C(C)(C)C)c(=O)n1N` [metribuzin], the inhibition at 35 g/ha was 80% in the test with Stellaria media (480 h, 20 DAT, STEME, metribuzin WG 70% solo 35 gai/ha) and 70% in the test on Helianthus annuus (Helianthus annuus, 480 h, 20 DAT, HELAN, metribuzin WG 70% solo 35 gai/ha). Besides, the inhibition at 31.25 g/ha with Papaver rhoeas (Papaver rhoeas, 480 h, metribuzin WG 70% solo 31.25 gai/ha) is 80%. Also, the inhibition at 125 g/ha in the test with Papaver rhoeas (Papaver rhoeas, 480 h, metribuzin WG 70% solo 125 gai/ha) is 98%. The “% activity” value is 80% in the test on Papaver rhoeas (solo, WG 70%, 31.25 gai/ha); 0% in the test with Echinocloa crus-galli (solo, WG 70%, 31.25 gai/ha); 30% with Echinocloa crus-galli (solo, WG 70%, 62.5 gai/ha). The inhibition at 62.5 g/ha in the test with Echinocloa crus-galli (Echinochloa crus-galli, 480 h, metribuzin WG 70% solo 62.5 gai/ha) worked out at 30%. The % herbicidal activity (weed control, 0-100 scale) at 250 g/ha in the test on Galium aparine (metribuzin WG 70% solo 250 gai/ha) came to 0%. In addition, in the test on Galium aparine (solo, WG 70%, 250 gai/ha), the pest or weed control at 250 g/ha stood at 0%.

For the compound `CCCCCCCCSC(=O)Oc1cc(Cl)nnc1-c1ccccc1` [pyridate], the inhibition at 112.5 g/ha in the test on Stellaria media (480 h, pyridate solo 112.5 gai/ha, 20 DAT, STEME) was found to be 25%. In addition, the inhibition at 450 g/ha in the test with Stellaria media (480 h, pyridate solo 450 gai/ha, 20 DAT, STEME) was found to be 55%; in the test with Helianthus annuus (Helianthus annuus, 480 h, pyridate solo 450 gai/ha, 20 DAT, HELAN) it was 70%. Moreover, in the test on Stellaria media (480 h, pyridate solo 900 gai/ha, 20 DAT, STEME), the inhibition at 900 g/ha was 70%. Also, the inhibition at 225 g/ha in the test on Helianthus annuus (Helianthus annuus, 480 h, pyridate solo 225 gai/ha, 20 DAT, HELAN) amounted to 60%.

In the case of `CC(C)N(C(=O)COc1nnc(C(F)(F)F)s1)c1ccc(F)cc1` [flufenacet], the inhibition at 125 g/ha with Helianthus annuus (Helianthus annuus, 480 h, 20 DAT, flufenacet solo 125 gai/ha) was 30%. In addition, the % herbicidal activity (weed control, 0-100 scale) at 15.6 g/ha in the test with Galium aparine (flufenacet SC 500 g/l solo 15.6 gai/ha) stood at 0%. For the same compound, the % herbicidal activity (weed control, 0-100 scale) at 31.25 g/ha with Galium aparine (flufenacet SC 500 g/l solo 31.25 gai/ha) came out at 0%. For the same compound, the % herbicidal activity (weed control, 0-100 scale) at 62.5 g/ha with Galium aparine (flufenacet SC 500 g/l solo 62.5 gai/ha, read-out: % activity) came out at 0%. Also, the % herbicidal activity (weed control, 0-100 scale) at 125 g/ha in the test with Galium aparine (flufenacet SC 500 g/l solo 125 gai/ha, read-out: % activity) worked out at 40%.

Regarding `Cc1ccccc1CO[C@@H]1C[C@@]2(C(C)C)CC[C@]1(C)O2` (racemic) [cinmethylin], in the test on Stellaria media (504 h, read-out: % activity), the pest or weed control at 62.5 g/ha worked out at 0% and the pest or weed control at 125 g/ha came out at 10%. The “% activity” value in the test with Helianthus annuus (62.5 gai/ha, HELAN) is 30%. In addition, the “% activity” value in the test on Helianthus annuus (500 gai/ha, HELAN) was found to be 60%. Besides, the % herbicidal activity (weed control, 0-100 scale) at 62.5 g/ha with Galium aparine (62.5 gai/ha (EC 750 g/l), Table X1, read-out: % activity, solo application) was 0%. Besides, the % herbicidal activity (weed control, 0-100 scale) at 125 g/ha in the test on Galium aparine (125 gai/ha (EC 750 g/l), Table X1, read-out: % activity, solo application) was determined as 20%.

Take `Cc1ccc(NC(=O)N(C)C)cc1Cl` [chlorotoluron]: the “% activity” value in the test on Papaver rhoeas (chlorotoluron solo 62.5 gai/ha) is reported as 0%; in the test with Papaver rhoeas (chlorotoluron solo 500 gai/ha), 90%; with Poa annua (chlorotoluron solo 125 gai/ha), 0%; with Poa annua (chlorotoluron solo 250 gai/ha), 20%; with Alopecurus myosuroides (chlorotoluron solo 62.5 gai/ha), 0%; in the test on Alopecurus myosuroides (chlorotoluron solo 125 gai/ha), 0%. Besides, the “% activity” value in the test on Alopecurus myosuroides (chlorotoluron solo 250 gai/ha) is recorded as 0%; with Echinocloa crus-galli (chlorotoluron solo 62.5 gai/ha), 0%; with Echinocloa crus-galli (chlorotoluron solo 125 gai/ha), 0%; in the test on Echinocloa crus-galli (chlorotoluron solo 250 gai/ha), 35%; with Echinocloa crus-galli (chlorotoluron solo 500 gai/ha) it was 25%. Also, in the test on Lolium multiflorum (chlorotoluron solo 250 gai/ha), the pest or weed control at 250 g/ha is 0%. For the same compound, in the test on Lolium multiflorum (chlorotoluron solo 500 gai/ha), the pest or weed control at 500 g/ha stood at 10%.

As usually defined, the inhibition is the percentage by which the read-out fell short of the control.
